# Experimental data taken from patent US12090155B2, “Methods” (INTRA-CELLULAR THERAPIES, INC., priority 2019, dated 2024).
# “Also recorded” adds a separate entry of the source.
# How the values were obtained:
# [1] = tested on: patients with Bipolar I or Bipolar II disorder experiencing a major depressive episode; test: Phase 3 placebo-controlled clinical trial, safety and tolerability; type: in vivo, human
# Procedure: (§1) A multi-center, multi-national, randomized, double-blind, fixed-dose, placebo-controlled clinical trial is conducted substantially in accordance with the following protocol.
# (§2) Patients are recruited according to the following criteria: • Major Inclusion Criteria: Male or female subjects of any race, ages 18-75 inclusive, with a clinical diagnosis of Bipolar I or Bipolar II disorder, experiencing a current major depressive episode, and able to provide written informed consent. • Major Exclusion Criteria: Any female subject who is pregnant or breast-feeding, and any subject judged to be medically inappropriate for study participation.
# (§3) In the placebo arm, placebo is administered once daily every evening for 6 weeks. […] The study is quadruple-masked (i.e., to participant, care provider, investigator, and outcomes assessor).
# (§4) The total study duration is about 10 weeks, including up to 2 weeks screening period (washout of prohibited medications), a 6-week double-blind treatment period, and 2-week safety follow-up period.
# Incidence of Adverse Events (AEs) • b. Young Mania Rating Scale (YMRS) • c. Columbia Suicide Severity Rating Scale (C-SSRS) • d. Abnormal Involuntary Movement Scale (AIMS) • e. Barnes Akathisia Rating Scale (BARS) • f. Simpson Angus Scale (SAS) • g. Clinical laboratory evaluations • h. Electrocardiograms (ECGs) • i. Vital sign measurements • j. Physical examination and neurological findings
# [2] = tested on: patients with Bipolar I or Bipolar II disorder experiencing a major depressive episode; test: Phase 3 placebo-controlled clinical trial, efficacy (MADRS, CGI-BP-S); type: in vivo, human
# Procedure: as §1, §2, §3, §4
# The primary outcome measure is the Montgomery-Åsberg Depression Rating Scale (MADRS) [Time Frame: Day 43]. Secondary outcome measures are the Clinical Global Impression Scale, Bipolar version (CGI-BP) [Time Frame: Day 43] and the Quality of Life Enjoyment and Satisfaction Questionnaire-Short Form (Q-LES-Q-SF) [Time Frame: Day 43].
# [3] = 42 mg once daily orally for 6 weeks, Day 43, ITT
# [4] = 42 mg once daily orally for 6 weeks, Day 43, listed as lumateperone
# [5] = 42 mg once daily orally for 6 weeks, change from baseline to Day 43, ITT
# [6] = 42 mg once daily, week 6, ITT population
structure (smiles),measurement,setting,value
"CN1CCN2c3c(cccc31)[C@@H]1CN(CCCC(=O)c3ccc(F)cc3)CC[C@@H]12 [Lumateperone, 4-((6bR,10aS)-3-methyl-2,3,6b,9,10,10a-hexahydro-1H-pyrido[3′,4′: 4,5]pyrrolo[1,2,3-de]quinoxalin-8(7H)-yl)-1-(4-fluorophenyl)-1-butanone]",Emergence of mania as measured by the Young Mania Rating Scale (YMRS) and clinical global impression of severity for mania,[1]; 42 mg daily,did not exhibit emergence of mania
same,"Extrapyramidal symptoms, akathisia, restlessness or other motor side effects (adverse event reports)",[1]; 42 mg daily,"does not increase akathisia, restlessness, or other movement disorders; also recorded: no adverse event reports of extrapyramidal symptoms"
same,"Metabolic effects (hyperglycemia, dyslipidemia, weight gain)",[1]; 42 mg daily,does not have significant metabolic side effects; also recorded: did not appear to have any noticeable metabolic effects
same,Overall safety profile / tolerability,[1]; 42 mg daily,"favorable safety profile in this trial, comparable to placebo; also recorded: generally safe and well tolerated"
same,"Rate of the most commonly reported adverse events (headache, somnolence and nausea), higher than placebo",[1]; 42 mg daily,greater than 5%
same,Rates of akathisia and extrapyramidal symptoms,[1]; 42 mg daily,less than 1%
same,Suicidal ideation (adverse event reports),[1]; 42 mg daily,does not increase suicidal ideation; also recorded: no adverse event reports of suicidal ideation
same,Number of patients with drug-related TEAE,"[1]; 42 mg, N = 188",78 (41.5) n (%)
same,Number of patients with drug-related treatment-emergent SAE,"[1]; 42 mg, N = 188",0 n (%)
same,Number of patients with treatment-emergent SAE,"[1]; 42 mg, N = 188",1 (0.5) n (%)
same,Number of patients with treatment-emergent death,"[1]; 42 mg, N = 188",0 n (%)
same,Subjects discontinued study due to TEAE,"[1]; 42 mg, N = 188",11 (5.9) n (%)
same,Subjects discontinued study due to drug-related TEAE,"[1]; 42 mg, N = 188",9 (4.8) n (%)
same,Subjects discontinued study due to drug-related treatment-emergent SAE,"[1]; 42 mg, N = 188",0 n (%)
same,Subjects discontinued study due to treatment-emergent SAE,"[1]; 42 mg, N = 188",1 (0.5) n (%)
same,Subjects who died,"[1]; 42 mg, N = 188",0 n (%)
same,Number of patients with one or more TEAE,"[1]; 42 mg, N = 188, safety population",103 (54.8) n (%)
same,"MADRS total score versus placebo, subgroup of patients with Bipolar II disorder","[2]; 42 mg daily, subgroup analysis, Bipolar II disorder",statistically significant superior versus placebo; also recorded: statistically significant superior to placebo
same,Responder rates and remission rates versus placebo,[2]; 42 mg once daily,statistically significant benefits
same,Time of first statistically significant separation from placebo on MADRS total score,[2]; 42 mg once daily,as early as week 1
same,"MADRS total score, Effect Size, comparison to placebo at Day 43","[2]; 42 mg once daily orally for 6 weeks, Day 43",−0.56
same,"CGI-BP-S total score, LSMD (SE), comparison to placebo at Day 43",[2]; [3],−0.9 (0.22)
same,"MADRS total score, LSMD (SE), comparison to placebo at Day 43",[2]; [3],-4.6
same,"CGI-BP-S total score, Effect Size, comparison to placebo at Day 43",[2]; [4],0.46
same,"MADRS total score, Effect Size, comparison to placebo at Day 43",[2]; [4],0.56
same,"CGI-BP-S total score, LS Mean (SE) Change at Day 43",[2]; [5],−3.5 (0.17)
same,"MADRS total score, LS Mean (SE) Change at Day 43",[2]; [5],−16.7 (0.69)
same,"CGI-S Depression Score, effect size versus placebo","[2]; 42 mg once daily, 6 weeks",0.5
same,"MADRS total score, LS mean difference versus placebo",[2]; [6],4.6 points
same,"MADRS total score, least squares (LS) mean reduction from baseline",[2]; [6],16.7 points
